Assay in all cases: NPY receptor functional assay (cAMP, HEK-CNG cells, ACTOne membrane potential dye)
Holding throughout (type): cell-based

One experiment has as its target human Y4 receptor (Homo sapiens, UniProt P50391). Particulars: standard PP, species (human or rat) not given. The source says:
(§1) The NPY family of G-protein coupled receptors include Y1, Y2, Y4, and Y5 in humans and rats. […] Following agonist binding, the receptor-G protein complex activates a downstream intracellular signaling cascade which leads to inhibition of adenylate cyclase and a reduction in intracellular cAMP levels.
(§2) HEK-CNG cells stably expressing the human or rat Y1, Y2, Y4 or Y5 receptors (Codex Biosolutions) were used to characterize the functional potency of peptide agonists using the ActOne™ membrane potential dye kit (Codex Biosolutions). In addition to each NPY receptor, each cell line encodes a proprietary exogenous Cyclic Nucleotide-Gated (CNG) channel (Codex Biosolutions). The channel is activated by elevated intracellular levels of cAMP, resulting in ion flux and cell membrane depolarization which can be detected with a calcium sensitive dye or fluorescent membrane potential (MP) dye. Cells were carried in growth media containing 90% DMEM, 10% FBS, 250 mcg/mL G418 and 1 mcg/mL puromycin for no more than 15 passages.
(§3) Prior to testing, cells were counted and dispensed at 14,000 cells per well (Y1, Y4 and Y5) or 28,000 cells per well (Y2) into black 384 well Poly-D-Lysine plates at 20 mcL per well. Covered plates were then incubated at room temperature for 30 minutes followed by an overnight incubation at 37° C. in 5% C02. The following day, media was removed and wells were washed once with 40 mcL Dulbecco's phosphate buffered saline. […] Ten microliters of experimental peptide or peptide standard was added in triplicate to wells and incubated for 50 minutes at room temperature in the dark. Following this incubation step, plates were read again as before (final read).
(§4) NPY receptor activation, leading to a reduction in intracellular cAMP levels, is detected as a decrease in isoproteranol induced fluorescent signal. Peptide standard and experimental values were initially transformed in excel using the formula: final read/initial read. Transformed values were then normalized to receptor specific standard values (1×10−13 M minimum and 1×10−7 M maximum) using the formula: (test value−standard minavg)/(standard maxavg−standard minavg)*100. […] Normalized data was analyzed from triplicate tests and used to estimate the EC50 for each test peptide on each receptor. Data was fit in GraphPad Prism software (v8.2.1) using a 3-parameter logistic curve model: Y=Bottom+(Top−Bottom)/(1+10^((LogEC50−X))). EC50 values were converted to pEC50 values using the formula: pEC50=−Log(EC50).

The target of another experiment is T1, human Y2 receptor (Homo sapiens, UniProt P49146).
T1 sequence (P49146 1-381): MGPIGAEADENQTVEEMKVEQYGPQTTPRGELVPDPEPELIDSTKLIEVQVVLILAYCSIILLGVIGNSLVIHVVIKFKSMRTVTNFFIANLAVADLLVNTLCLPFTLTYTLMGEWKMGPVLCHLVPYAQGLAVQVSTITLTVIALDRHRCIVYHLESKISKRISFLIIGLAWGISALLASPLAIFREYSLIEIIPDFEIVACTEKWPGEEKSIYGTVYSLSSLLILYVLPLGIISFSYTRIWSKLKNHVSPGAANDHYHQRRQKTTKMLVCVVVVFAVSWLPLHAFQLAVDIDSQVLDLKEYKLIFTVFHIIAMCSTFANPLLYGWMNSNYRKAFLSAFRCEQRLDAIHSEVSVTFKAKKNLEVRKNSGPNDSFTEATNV
Particulars: NPY2R pEC50, HEK-CNG cells; standard PYY(3-36); species (human or rat) not given.
Description: as §1, §2, §3, §4

Another experiment addresses T2, human Y5 receptor (Homo sapiens, UniProt Q15761).
T2 sequence (Q15761 1-445): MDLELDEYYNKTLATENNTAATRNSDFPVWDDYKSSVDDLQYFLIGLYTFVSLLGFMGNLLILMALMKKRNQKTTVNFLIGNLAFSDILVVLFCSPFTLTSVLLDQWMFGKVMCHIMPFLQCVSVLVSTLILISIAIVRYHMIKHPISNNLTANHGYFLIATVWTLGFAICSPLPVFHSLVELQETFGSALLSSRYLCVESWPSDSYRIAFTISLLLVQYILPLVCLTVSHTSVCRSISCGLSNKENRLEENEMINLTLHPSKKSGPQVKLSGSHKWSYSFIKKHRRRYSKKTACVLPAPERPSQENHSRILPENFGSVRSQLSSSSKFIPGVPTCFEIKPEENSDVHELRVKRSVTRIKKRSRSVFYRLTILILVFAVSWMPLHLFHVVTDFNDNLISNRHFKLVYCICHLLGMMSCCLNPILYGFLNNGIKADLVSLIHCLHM
The conditions noted are these: NPY5R pEC50, HEK-CNG cells; standard NPY; species (human or rat) not given.
Description: as §1, §2, §3, §4

Starred links: 1 amine or outer side, 2 acyl side, 3 side chain; linkers in the order of their positions; H or OH if unused. Residues, ends and D or L forms follow the SMILES beside them. Groups on a side chain read outwards from the residue. *: point of attachment. C20 diacid = O=C(O)CCCCCCCCCCCCCCCCCCC(=O)*; γGlu = O=C(O)[C@H](CCC(=O)[*:2])N[*:1]

human Y4 receptor, sequence (P50391 whole entry): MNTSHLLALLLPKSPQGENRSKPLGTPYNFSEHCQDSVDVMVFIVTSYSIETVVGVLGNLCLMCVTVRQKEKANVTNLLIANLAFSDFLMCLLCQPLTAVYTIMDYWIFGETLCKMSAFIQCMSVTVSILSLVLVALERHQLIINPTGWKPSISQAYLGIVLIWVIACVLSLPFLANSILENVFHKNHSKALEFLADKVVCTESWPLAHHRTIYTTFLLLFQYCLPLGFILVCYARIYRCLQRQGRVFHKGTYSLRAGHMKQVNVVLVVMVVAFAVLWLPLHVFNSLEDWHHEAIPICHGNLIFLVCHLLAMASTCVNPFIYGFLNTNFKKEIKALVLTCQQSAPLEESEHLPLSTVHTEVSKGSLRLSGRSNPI

On to `CC(C)C[C@H](NC(=O)[C@H](CC(=O)O)NC(=O)[C@H](C)NC(=O)[C@H](Cc1ccc(O)cc1)NC(=O)[C@H](Cc1ccc(O)cc1)NC(=O)[C@H](CCCNC(=N)N)NC(=O)[C@H](CC(N)=O)NC(=O)[C@H](Cc1c[nH]c2ccccc12)NC(=O)[C@H](CCC(=O)O)NC(=O)[C@H](CCC(=O)O)NC(=O)[C@@H]1CCCN1C(=O)[C@H](CO)NC(=O)[C@H](C)NC(=O)[C@H](CC(=O)O)NC(=O)[C@H](CCCCN)NC(=O)CNC(=O)[C@@H]1CCCN1C(=O)[C@H](C)NC(=O)[C@H](CCC(=O)O)NC(=O)[C@@H]1CCCN1C(=O)[C@H](CCCCN)NC(=O)[C@@H]1CCCN1)C(=O)N[C@@H](CCCNC(=N)N)C(=O)N[C@@H](Cc1c[nH]cn1)C(=O)N[C@@H](Cc1ccc(O)cc1)C(=O)N[C@@H](CC(C)C)C(=O)N[C@@H](CCCCNC(=O)CC[C@H](NC(=O)CC[C@H](NC(=O)CCCCCCCCCCCCCCCCCCC(=O)O)C(=O)O)C(=O)O)C(=O)N[C@@H](Cc1c[nH]c2ccccc12)C(=O)N[C@@H](CC(C)C)C(=O)N[C@H](C(=O)N[C@@H](CCCNC(=N)N)C(=O)N[C@@H](CCC(N)=O)C(=O)N[C@@H](CCCNC(=N)N)C(=O)N[C@@H](Cc1ccccc1)C(N)=O)[C@@H](C)O` [Compound A51], for which, on human Y4 receptor, the “NPY4R pEC50” value was “inactive”.
As for `CC(C)C[C@H](NC(=O)[C@H](CC(=O)O)NC(=O)[C@H](C)NC(=O)[C@H](Cc1ccc(O)cc1)NC(=O)[C@H](Cc1ccc(O)cc1)NC(=O)[C@H](CCCNC(=N)N)NC(=O)[C@H](CC(N)=O)NC(=O)[C@H](Cc1c[nH]c2ccccc12)NC(=O)[C@H](CCC(=O)O)NC(=O)[C@H](CCC(=O)O)NC(=O)[C@@H]1CCCN1C(=O)[C@H](CO)NC(=O)[C@H](C)NC(=O)[C@H](CC(=O)O)NC(=O)[C@H](CCCCN)NC(=O)CNC(=O)[C@@H]1CCCN1C(=O)[C@H](C)NC(=O)[C@H](CCC(=O)O)NC(=O)[C@@H]1CCCN1C(=O)[C@H](CCCCN)NC(=O)[C@@H]1CCCN1)C(=O)N[C@@H](CCCNC(=N)N)C(=O)N[C@@H](Cc1c[nH]cn1)C(=O)N[C@@H](Cc1ccc(O)cc1)C(=O)N[C@@H](CC(C)C)C(=O)N[C@@H](CC(N)=O)C(=O)N[C@@H](Cc1c[nH]c2ccccc12)C(=O)N[C@@H](CC(C)C)C(=O)N[C@H](C(=O)N[C@@H](CCCNC(=N)N)C(=O)N[C@@H](CCCCNC(=O)CC[C@H](NC(=O)CC[C@H](NC(=O)CCCCCCCCCCCCCCCCCCC(=O)O)C(=O)O)C(=O)O)C(=O)N[C@@H](CCCNC(=N)N)C(=O)N[C@@H](Cc1ccccc1)C(N)=O)[C@@H](C)O` [Compound A50], the “NPY4R pEC50” value on human Y4 receptor was “inactive”.
On to `CC(C)C[C@H](NC(=O)[C@H](CC(=O)O)NC(=O)[C@H](CCCCN)NC(=O)[C@H](Cc1ccc(O)cc1)NC(=O)[C@H](Cc1ccc(O)cc1)NC(=O)[C@H](CCCNC(=N)N)NC(=O)[C@H](CC(=O)O)NC(=O)[C@H](Cc1c[nH]c2ccccc12)NC(=O)[C@H](CCC(=O)O)NC(=O)[C@H](CCCCN)NC(=O)[C@@H]1CCCN1C(=O)[C@H](CO)NC(=O)[C@H](C)NC(=O)[C@H](CC(=O)O)NC(=O)[C@H](CCC(=O)O)NC(=O)CNC(=O)[C@@H]1CCCN1C(=O)[C@H](CCCCNC(=O)CC[C@H](NC(=O)CC[C@H](NC(=O)CCCCCCCCCCCCCCCCCCC(=O)O)C(=O)O)C(=O)O)NC(=O)[C@H](CCC(=O)O)NC(=O)[C@@H]1CCCN1C(=O)[C@H](CCCCN)NC(=O)[C@@H]1CCCN1)C(=O)N[C@@H](CCCNC(=N)N)C(=O)N[C@@H](Cc1c[nH]cn1)C(=O)N[C@@H](Cc1ccc(O)cc1)C(=O)N[C@@H](CC(C)C)C(=O)N[C@@H](CC(N)=O)C(=O)N[C@@H](Cc1c[nH]c2ccccc12)C(=O)N[C@@H](CC(C)C)C(=O)N[C@H](C(=O)N[C@@H](CCCNC(=N)N)C(=O)N[C@@H](CCC(N)=O)C(=O)N[C@@H](CCCNC(=N)N)C(=O)N[C@@H](Cc1ccccc1)C(N)=O)[C@@H](C)O` [Compound A78], for which the results for the EC50 at human Y2 receptor and at human Y5 receptor were 0.0631 nM and 3.16 nM, respectively.
Taken in the same sequence, the figures for `CC(C)C[C@H](NC(=O)[C@H](CC(=O)O)NC(=O)[C@H](CCCCN)NC(=O)[C@H](Cc1ccc(O)cc1)NC(=O)[C@H](Cc1ccc(O)cc1)NC(=O)[C@H](CCCNC(=N)N)NC(=O)[C@H](CC(N)=O)NC(=O)[C@H](Cc1c[nH]c2ccccc12)NC(=O)[C@H](CCC(=O)O)NC(=O)[C@H](CCCCN)NC(=O)[C@@H]1CCCN1C(=O)[C@H](CO)NC(=O)[C@H](C)NC(=O)[C@H](CC(=O)O)NC(=O)[C@H](CCCCN)NC(=O)CNC(=O)[C@@H]1CCCN1C(=O)[C@H](CCCCNC(=O)CC[C@H](NC(=O)CC[C@H](NC(=O)CCCCCCCCCCCCCCCCCCC(=O)O)C(=O)O)C(=O)O)NC(=O)[C@H](CCC(=O)O)NC(=O)[C@@H]1CCCN1C(=O)[C@H](CCCCN)NC(=O)[C@@H]1CCCN1)C(=O)N[C@@H](CCCNC(=N)N)C(=O)N[C@@H](Cc1c[nH]cn1)C(=O)N[C@@H](Cc1ccc(O)cc1)C(=O)N[C@@H](CC(C)C)C(=O)N[C@@H](CC(N)=O)C(=O)N[C@@H](Cc1c[nH]c2ccccc12)C(=O)N[C@@H](CC(C)C)C(=O)N[C@H](C(=O)N[C@@H](CCCNC(=N)N)C(=O)N[C@@H](CCC(N)=O)C(=O)N[C@@H](CCCNC(=N)N)C(=O)N[C@@H](Cc1ccccc1)C(N)=O)[C@@H](C)O` [Compound A71] (H-PKPEK([γGlu-γGlu-C20 diacid])PGKDASPKEWNRYYKDLRHYLNWLTRQRF-NH2; N-terminus assumed) were 0.02 nM and 1.58 nM.
In the same order, the values of `CC(C)C[C@H](NC(=O)[C@H](CC(=O)O)NC(=O)[C@H](CCCCN)NC(=O)[C@H](Cc1ccc(O)cc1)NC(=O)[C@H](Cc1ccc(O)cc1)NC(=O)[C@H](CCCNC(=N)N)NC(=O)[C@H](CC(N)=O)NC(=O)[C@H](Cc1c[nH]c2ccccc12)NC(=O)[C@H](CCC(=O)O)NC(=O)[C@H](CCCCN)NC(=O)[C@@H]1CCCN1C(=O)[C@H](CO)NC(=O)[C@H](C)NC(=O)[C@H](CC(=O)O)NC(=O)[C@H](CCC(=O)O)NC(=O)CNC(=O)[C@@H]1CCCN1C(=O)[C@H](CCCCNC(=O)CC[C@H](NC(=O)CC[C@H](NC(=O)CCCCCCCCCCCCCCCCCC(=O)O)C(=O)O)C(=O)O)NC(=O)[C@H](CCC(=O)O)NC(=O)[C@@H]1CCCN1C(=O)[C@H](CCCCN)NC(=O)[C@@H]1CCCN1)C(=O)N[C@@H](CCCNC(=N)N)C(=O)N[C@@H](Cc1c[nH]cn1)C(=O)N[C@@H](Cc1ccc(O)cc1)C(=O)N[C@@H](CC(C)C)C(=O)N[C@@H](CC(N)=O)C(=O)N[C@@H](Cc1c[nH]c2ccccc12)C(=O)N[C@@H](CC(C)C)C(=O)N[C@H](C(=O)N[C@@H](CCCNC(=N)N)C(=O)N[C@@H](CCC(N)=O)C(=O)N[C@@H](CCCNC(=N)N)C(=O)N[C@@H](Cc1ccccc1)C(N)=O)[C@@H](C)O` [Compound A36] are 0.0126 nM and 2 nM.
